# Earlier results in US20180346488A1, “CYTOTOXIC BENZODIAZEPINE DERIVATIVES AND CONJUGATES THEREOF” (priority 2017, published 2018).
# Settings: Phase I clinical evaluation; cited from earlier work
compound,measurement,value
C=C1C[C@H]2C=Nc3cc(OCCCOc4cc5c(cc4OC)C(=O)N4CC(=C)C[C@H]4C=N5)c(OC)cc3C(=O)N2C1 [SJG-136],DNA damage in circulating lymphocytes,noted at all doses
same,adverse effects noted,"vascular leak syndrome, peripheral edema, liver toxicity and fatigue"
same,maximum tolerated dose,45 μg/m^2
